47 compounds from US11046691B1 (IDEAYA BIOSCIENCES, INC., priority 2018, dated 2021) can be followed below.

The target in the first experiment is T1, hMAT2A (Homo sapiens (Human), UniProt P31153). In words: Malachite Green Assay (MAT2A enzyme inhibition). It is filed as biochemical. Conditions: hMAT2A 50 nM, substrates 500 uM each, 1 hour. On the procedure: The ability of the compound of present disclosure to inhibit MAT2A enzyme was determined using the Malachite Green or Phosphate Sensor Fluorescence Assay described below.
T1 sequence (P31153 whole entry): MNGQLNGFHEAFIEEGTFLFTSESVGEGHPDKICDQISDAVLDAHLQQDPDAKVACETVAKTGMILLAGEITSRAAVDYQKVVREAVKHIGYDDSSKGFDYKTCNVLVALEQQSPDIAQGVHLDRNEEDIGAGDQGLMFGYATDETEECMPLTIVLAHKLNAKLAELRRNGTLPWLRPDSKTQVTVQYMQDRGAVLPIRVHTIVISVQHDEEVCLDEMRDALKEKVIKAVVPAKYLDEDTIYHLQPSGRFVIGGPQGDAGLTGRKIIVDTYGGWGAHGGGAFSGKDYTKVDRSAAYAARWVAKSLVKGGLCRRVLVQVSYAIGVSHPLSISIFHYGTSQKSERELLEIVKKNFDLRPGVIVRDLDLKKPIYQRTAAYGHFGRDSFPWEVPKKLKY
L-methionine Substrate: Alfa Aesar catalog #J61904
ATP Substrate: Alfa Aesar cat #J60336
Malachite Green Detection Reagent: Millipore Sigma catalog #MAK307-1KT
Assay buffer: 50 mM Tris, pH 7.5/50 mM KCl/10 mM MgCl2/0.01% Brij-35/1 mM DTT/0.1% BGG
The plate was centrifuged at 1000 rpm for 1 minute and then incubated at room temperature for 1 hour. 5 μL of malachite green detection reagent was added to all the test wells and the plate was centrifuged at 1000 rpm for 1 minute and then incubated at room temperature for 30 minutes. The plate was read for absorbance at 620 nm on a plate reader (e.g., Infinite M1000).
Usually IC50 stands for the concentration that inhibits the measured activity by half. A lower IC50 goes with greater potency. In turn, `O=c1nc(NCc2ccccc2)c2ccc(Cl)cc2n1-c1ccccc1` [Example 23, 4-(benzylamino)-7-chloro-1-phenyl-quinazolin-2(1H)-one] registered an IC50 of 200 to 500 nM. On the same count and under the same terms, for `O=c1nc(Nc2ccccn2)c2ccc(Cl)cc2n1-c1ccccc1` [Example 32, 7-chloro-1-phenyl-4-(pyridin-2-yl-amino)quinazolin-2(1H)-one] the value was 200 to 500 nM; for `CNc1nc(=O)n(-c2ccccc2)c2cc(OC)ccc12` [Example 49, 7-methoxy-4-(methylamino)-1-phenyl-quinazolin-2(1H)-one], below 200 nM; for `CNc1nc(=O)n(-c2ncccn2)c2cc(Cl)ccc12`, below 200 nM.

The compound `CNc1nc(=O)n(-c2ccccc2)c2cc(Cl)cc(F)c12` registered an IC50 below 200 nM.

`CN(C)c1nc(=O)n(-c2ccccc2)c2cc(Br)ccc12` [Example 34, 7-bromo-4-(dimethylamino)-1-phenyl-quinazolin-2(1H)-one] had an IC50 below 200 nM. Same read-out and setting: for `CN(C)c1nc(=O)n(-c2cccc(CO)c2)c2cc(Cl)ccc12` [Example 77] the value was below 200 nM; for `Cc1c(Cl)ccc2c(N(C)C)nc(=O)n(-c3ccccc3)c12` [Example 43, 7-chloro-4-(dimethylamino)-8-methyl-1-phenyl-quinazolin-2(1H)-one], 1000 to 10000 nM.

For `CN(C)c1nc(=O)n(-c2cccc(CCOc3ccccc3)c2)c2cc(Cl)ccc12` [Example 75, 7-chloro-4-(dimethylamino)-1-(3-(2-phenoxyethyl)phenyl)quinazolin-2(1H)-one], the IC50 is below 200 nM.

With `O=c1nc(N2CCOCC2)c2ccc(Cl)cc2n1-c1ccccc1` [Example 28, 7-chloro-4-morpholino-1-phenyl-quinazolin-2(1H)-one], the IC50 lay in the range of 200 to 500 nM.

Regarding `CNc1nc(=O)n(-c2cnccn2)c2cc(Cl)ccc12`, the IC50 lay within 200 to 500 nM. `O=c1nc(NCC(F)F)c2ccc(Cl)cc2n1-c1ccccc1` [Example 31, 7-chloro-4((2,2-difluoroethyl)amino)-1-phenyl-quinazolin-2 (1H)-one] yielded a 50% inhibitory concentration (IC50) of 500 to 1000 nM. Same read-out and setting: the value for `CNc1nc(=O)n(-c2ccccc2)c2cc(Cl)cc(OC)c12` [Example 70, 7-chloro-5-methoxy-4-(methylamino)-1-phenylquinazolin-2(1H)-one] was below 200 nM; that for `COc1cccc(-n2c(=O)nc(N(C)C)c3ccc(Cl)cc32)c1` [Example 76] was below 200 nM. The same measure, in the same setting: for `CN(C)c1nc(=O)n(-c2cccc(Br)c2)c2cc(Cl)ccc12` [Example 60, 1-(3-bromophenyl)-7-chloro-4-(dimethylamino)quinazolin-2(1H)-one] the value was below 200 nM; for `CNc1nc(=O)n(-c2cccc(CCO)c2)c2cc(Cl)ccc12` [Example 47, 7-chloro-1-[3-(2-hydroxyethyl)phenyl]-4-(methylamino)-hydroquinazolin-2-one], below 200 nM. Still for that read-out and setting: the value for `CNc1nc(=O)n(-c2cccc(C)c2)c2cc(Cl)ccc12` [Example 55] was below 200 nM. Consider `CNc1nc(=O)n(-c2ccccc2)c2cc(Br)ccc12`, for which the IC50 is below 200 nM. On the same count and under the same terms, the value for `O=c1nc(N2CCC2)c2ccc(Cl)cc2n1-c1cc(O)cc(F)c1` [Example 38, 4-azetidinyl-7-chloro-1-(5-fluoro-3-hydroxy-phenyl)hydroquinazolin-2-one] was below 200 nM; that for `CNc1nc(=O)n(-c2ccccc2)c2cc(Cl)ccc12` [Example 2, 7-chloro-4-(methylamino)-1-phenylquinazolin-2(1H)-one] was below 200 nM; that for `CN(C)c1nc(=O)n(-c2cccc(C#N)c2)c2cc(Cl)ccc12` [Example 81, 3-[4-(dimethylamino)-7-chloro-2-oxohydroquinazolinyl]benzenecarbo-nitrile] was below 200 nM. On the same count and under the same terms, for `O=c1nc(N2CC(O)C2)c2ccc(Cl)cc2n1-c1ccccc1` [Example 74, 7-chloro-4-(3-hydroxyazetidin-1-yl)-1-phenylquinazolin-2(1H)-one] the value was below 200 nM; for `O=c1nc(N2CC[C@H](O)C2)c2ccc(Cl)cc2n1-c1ccccc1` [Example 26, (S)-7-chloro-4-(3-hydroxypyrrolidin-1-yl)-1-phenylquinazolin-2(1H)-one], below 200 nM. On the same count and under the same terms, for `O=c1nc(-n2cccn2)c2ccc(Cl)cc2n1-c1ccccc1` [Example 29, 7-chloro-1-phenyl-4-(1H-pyrazol-1-yl)quinazolin-2(1H)-one] the value was 1000 to 10000 nM. `CNc1nc(=O)n(-c2ccccc2)c2cc(Cl)c(OC)cc12` [Example 73, 7-chloro-6-methoxy-4-(methylamino)-1-phenylquinazolin-2(1H)-one] returned an IC50 below 200 nM. The same measure, in the same setting: for `CNc1nc(=O)n(-c2cc(O)cc(F)c2)c2cc(Cl)ccc12` the value was below 200 nM. The same measure, in the same setting: for `CNc1nc(=O)n(-c2cccc(O)c2)c2cc(Cl)ccc12` [Example 46, 7-chloro-1-(3-hydroxyphenyl)-4-(methylamino)-hydroquinazolin-2-one] the value was below 200 nM; for `O=c1nc(N2CCC2)c2ccc(Cl)cc2n1-c1ccccc1` [Example 25, 4-(azetidin-1-yl)-7-chloro-1-phenyl-quinazolin-2(1H)-one], below 200 nM.

Compound `CN(C)CCNc1nc(=O)n(-c2ccccc2)c2cc(Cl)ccc12` [Example 64, 7-chloro-4-((2-(dimethylamino)ethyl)-amino)-1-phenylquinazolin-2(1H)-one] registered an IC50 of 1000 to 10000 nM.

As for `CNc1nc(=O)n(-c2ccncc2)c2cc(Cl)ccc12`, the IC50 is 1000 to 10000 nM.

For a further experiment, the target named is T1, hMAT2A. Nature of the experiment: Phosphate Sensor Fluorescence Assay (MAT2A enzyme inhibition). In kind it is biochemical. Conditions: L-methionine 500 uM, ATP 500 uM, class symbols. The essentials: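 Recombinant MAT2A preincubated 15 min at room temperature with compound, then reacted 1 h at room temperature with 500 uM L-methionine and 500 uM ATP in Tris pH 7.5 buffer containing PNP/7-MEG.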
In turn, `Cc1ncccc1-n1c(=O)nc(N)c2ccc(C(F)(F)F)cc21` [Example 285] registered an IC50 below 200 nM. In turn, `CNc1nc(=O)n(-c2ccccc2C)c2cc(C(F)(F)F)ccc12` [Example 129, 4-(methylamino)-1-(2-methylphenyl)-7-(trifluoromethyl)hydroquinazolin-2-one] showed an IC50 below 200 nM.

On to `O=c1nc(NCCCO)c2ccc(C(F)(F)F)nc2n1-c1ccccc1Cl` [Example 247, 1-(2-chlorophenyl)-4-[(3-hydroxy-propyl)amino]-7-(trifluoromethyl)-pyrido[2,3-d]pyrimidin-2(1H)-one], for which the half-maximal inhibitory concentration (IC50) was below 200 nM. For `Cc1ncccc1-n1c(=O)nc(N2CC[C@@H](O)C2)c2ccc(C(F)(F)F)cc21` [Example 283], the IC50 was below 200 nM. On the same count and under the same terms, for `CS(=O)(=O)CCNc1nc(=O)n(-c2ccccc2Cl)c2nc(C(F)(F)F)ccc12` [Example 264, 1-(2-chlorophenyl)-4-{[2-(methyl-sulfonyl)ethyl]amino}-7-(trifluoro-methyl)pyrido [2,3-d]pyrimidin-2 (1H)-one] the value was below 200 nM; for `Cc1ccc2c(NCC(F)(F)F)nc(=O)n(-c3ccccc3)c2n1` [Example 397, 7-methyl-1-phenyl-4-[(2,2,2-trifluoro-ethyl)amino]pyrido[2,3-d]pyrimidin-2(1H)-one], below 200 nM; for `N#Cc1cccc(-n2c(=O)nc(N)c3ccc(C(F)(F)F)nc32)c1` [Example 168, 3-(4-amino-2-oxo-7-(trifluoromethyl)-pyrido[2,3-d]pyrimidin-1(2H)-yl)-benzonitrile], below 200 nM.

`O=c1nc(NCC(F)(F)F)c2ccc(C(F)(F)F)cc2n1-c1ncccn1` [Example 121] gave an IC50 of 200 to 500 nM.

With `CN(Cc1ccncc1)c1nc(=O)n(-c2ccccc2)c2cc(Cl)ccc12` [Example 234, 7-chloro-4-[methyl(pyridin-4-ylmethyl)-amino]-1-phenylhydroquinazolin-2-one], the concentration for half-maximal inhibition (IC50) was below 200 nM.

For `O=c1[nH]c(=O)n(-c2cnccc2Cl)c2nc(C(F)(F)F)ccc12` [Example 358, 1-(4-chloropyridin-3-yl)-7-(trifluoro-methyl)pyrido[2,3-d]pyrimidine-2,4(1H,3H)-dione], the half-inhibitory concentration (IC50) is below 200 nM. As to `Cc1ccccc1-n1c(=O)nc(N2CC(O)C2)c2ccc(C(F)(F)F)nc21` [Example 165], the IC50 is below 200 nM. On the same count and under the same terms, for `O=c1nc(N2CC[C@@H](O)C2)c2ccc(Cl)cc2n1-c1ccccc1Cl` (atropisomer, axis not shown) [Example 135, 4-((3R)-3-hydroxypyrrolidin-1-yl)-7-chloro-1-(2-chlorophenyl)hydro-quinazolin-2-one] the value was below 200 nM; for `CNC(=O)c1cccc(-n2c(=O)nc(NC)c3ccc(Cl)cc32)c1` [Example 175], below 200 nM.

Staying with this experiment, now noted: L-methionine 500 uM, ATP 500 uM, numeric bound.
On to `O=C(O)[C@@H]1CCCN1c1nc(=O)n(-c2ccccc2)c2cc(Cl)ccc12` [Example 195, (2S)-1-(7-chloro-2-oxo-1-phenylhydro-quinazolin-4-yl)pyrrolidine-2-carboxylic acid], for which the IC50 was above 10000 nM. Still for that read-out and setting: the value for `CNc1nc(=O)n(-c2ccccc2)c2cc(Cl)cc(-n3nccn3)c12` [Example 209, 7-chloro-4-(methylamino)-1-phenyl-5-(1,2,3-triazol-2-yl)quinazolin-2(1H)-one] was above 10000 nM. On the same count and under the same terms, the value for `CNc1nc(=O)n(-c2nc(C(F)(F)F)cs2)c2cc(Cl)ccc12` [Example 113, 7-chloro-4-(methylamino)-1-[4-(trifluoromethyl)(1,3-thiazol-2-yl)]hydroquinazolin-2-one] was above 10000 nM; that for `CN(Cc1ccccn1)c1nc(=O)n(-c2ccccc2)c2cc(Cl)ccc12` [Example 236, 7-chloro-4-[methyl(pyridin-2-ylmethyl)-amino]-1-phenylhydroquinazolin-2-one] was above 10000 nM.
